Legend:
Format in all cases: cell-based, human
[1] = test system: Interleukin (IL)6; assay: HaCaT keratinocytes, base line production of IL6 (no TNFα), Experiment 2
Description: (§1) In a second assay, the human keratinocyte cell line HaCat was stimulated with the inflammatory cytokine TNFα and the release of Interleukin (IL)6 into the medium was analysed with a commercially available “Enzyme Linked Immunosorbent Assay” (ELISA).
HaCaT cells were cultivated under the conditions explained in detail in Wertz et al., Free Radical Biology & Medicine, Vol. 37, No. 5, pp. 654-670, 2004. Cells were pre-cultivated in medium containing with lycopene at a concentration of 1 μmol/L for 48 h to give the cells sufficient time to accumulate lycopene. Lycopene was solubilized in a stock solution with Tetrahydrofuran (THF) and diluted into the medium such that the end concentration was 0.1% THF. […] Cells were harvested by trypsinisation and counted according to standard procedures. Il6 levels in the medium were standardized to the number of cells in the wells and expressed as pg/10^6 cells
This experiment was performed to investigate whether two other carotenoid representatives, beta-carotene and beta-cryptoxanthin, are able to reduce the general base line production of inflammatory mediators of normal skin

[2] = test system: HBD2; assay: Cytokine mix-induced keratinocyte inflammation model, HBD2 mRNA expression (real-time PCR); conditions: NHEK; for HBD2, % compared to the control treated only with cytokine mix: 2 h pre-treatment, cytokine mix 24 h
Description: (§2) Two assays were performed to investigate the effect of selected compounds of this invention in an inflammation model with human skin keratinocytes.
(§3) In this model, the association of 3 cytokines that induce a strong synergistic effect on keratinocytes in culture (Boniface K, Diveu C, Morel F, Pedretti N, Froger J, Ravon E, Garcia M, Venereau E, Preisser L, Guignouard E, Guillet G, Dagregorio G, Pene J, Moles J P, Yssel H, Chevalier S, Bernard F X, Gascan H, Lecron J C. Oncostatin M secreted by skin infiltrating T lymphocytes is a potent keratinocyte activator involved in skin inflammation. J Immunol. 2007 Apr. 1;178(7):4615-22), is used to measure the expression of selected markers for keratinocyte inflammation: the antibacterial/chemoattractive markers S100A7/psoriasin and defensin HBD2/4
(§4) Normal human epidermal keratinocytes (NHEK pool K015, 3e passage) were cultured under the following conditions: • Culture: 37° C., 5% CO2 • Culture medium: SFM (Invitrogen 17005075) • Epidermal Growth Factor 0.25 ng/ml and pituitary extract 25 μg/ml • (EGF, EP, Invitrogen 17005075) • Gentamycine 25 μg/ml (Sigma G1397) • Assay medium: SFM without EGF and pituitary extract (Invitrogen 17005075)
(§5) Keratinocytes were pre-cultivated in culture medium. At confluence, the culture medium was changed into assay medium (SFM without EGF and pituitary extract) containing or not (control) the test compounds and the cells were pre-treated for 2 h at 37° C. and 5% CO2. At the end of the pre-treatment, the cytokine mix consisting of oncostatin M (OSM), IL-17 and […], was added to the cultures for 24 h at 37° C. and 5% CO2 (a non-treated and non-stimulated control was run in parallel). At the end of the experiment, the cells were washed in PBS buffer (Invitrogen 14190094) and immediately frozen at −80° C. with 300 μl per well of Tri-reagent (Sigma T9424).
(§6) Primers couples allowing the amplification of a specific PCR product from each selected marker were used. Liver glyceraldehyde 3-phosphate dehydrogenase (G3PDH) was used as a reference marker in this experiment.
Defensin beta 4 (DEFB4), beta-defensin 2 (hBD2, DEFB2);
skin-antimicrobial peptide 1 (SAP1) HBD2 NM_004942
(§7) RNA Extraction and Reverse Transcription • Extraction of total RNA by Tri-Reagent according to the protocol recommended by the supplier. • Elimination of contaminant DNA by DNAse treatment using the “DNA-free” system (Ambion). • Reverse-transcription of mRNA in the presence of oligo(dT) and Superscript II reversetranscriptase (Invitrogen).
(§8) The PCR reactions (Polymerase Chain Reactions) were performed using the LightCycler® system (Roche Molecular Systems Inc.) according to the protocol recommended by the supplier. This system allows rapid and powerful PCR reactions.
(§9) The reaction mix (10 μl final) was added as follows: • 2.5 μl of cDNA diluted at 1/10e. • primers forward and reverse • reagent mix (Roche) containing tag DNA polymerase, SYBR Green I and MgCl2.
(§10) The incorporation of fluorescence in amplified DNA was measured continuously during the PCR cycles. […] The RE value was expressed in arbitrary units (AU) according to the formula:
(§11) (½ number of cycles)×10^6

[3] = test system: S100A7/psoriasin; assay: Cytokine mix-induced keratinocyte inflammation model, S100A7 mRNA expression (real-time PCR); conditions: NHEK; for S100A7, % compared to the control treated only with cytokine mix: 2 h pre-treatment, cytokine mix 24 h
Description: as §2, §3, §4, §5, §6, §7, §8, §9, §10, §11

[4] = test system: Interleukin (IL)6; assay: TNFα-stimulated HaCaT keratinocytes, release of IL6 into the medium (ELISA), Experiment 1
Description: as §1
HaCaT cells were cultivated under the conditions explained in detail in Wertz et al., Free Radical Biology & Medicine, Vol. 37, No. 5, pp. 654-670, 2004. Cells were pre-cultivated in medium containing with lycopene at a concentration of 1 μmol/L for 48 h to give the cells sufficient time to accumulate lycopene. Lycopene was solubilized in a stock solution with Tetrahydrofuran (THF) and diluted into the medium such that the end concentration was 0.1% THF. After the pre-incubation period, cells were stimulated with […] TNFα for 5 h, after which the medium was collected and frozen. Cells were harvested by trypsinisation and counted according to standard procedures. Il6 levels in the medium were standardized to the number of cells in the wells and expressed as pg/10^6 cells

| Compound | Effect on base line IL6 secretion (in words) [1] | IL6 pg/10^6 cells ± SD ([1]; 0.1 μmol/L) | IL6 pg/10^6 cells ± SD ([1]; 0.25 μmol/L) | IL6 pg/10^6 cells ± SD ([1]; 1.0 μmol/L) | IL6 pg/10^6 cells ± SD ([1]; 3.0 μmol/L) | IL6 pg/10^6 cells ± SD ([1]; 0.5 μmol/L) | HBD2, % compared to the control treated only with cytokine mix ([2]; 0.2 μmol/L) | HBD2, % compared to the control treated only with cytokine mix ([2]; 1.0 μmol/L) | HBD2, % compared to the control treated only with cytokine mix ([2]; 5.0 μmol/L) | S100A7, % compared to the control treated only with cytokine mix ([3]; 0.2 μmol/L) | S100A7, % compared to the control treated only with cytokine mix ([3]; 1.0 μmol/L) | S100A7, % compared to the control treated only with cytokine mix ([3]; 5.0 μmol/L) | Effect on reaction of keratinocytes to pro-inflammatory stimulus (in words) [4] | Effect on cytokine mix induction of HBD2/4 mRNA (in words) [2] | Effect on cytokine mix induction of S100A7 mRNA (in words) [3] |
| --- | --- | --- | --- | --- | --- | --- | --- | --- | --- | --- | --- | --- | --- | --- | --- |
| CC1=C(/C=C/C(C)=C/C=C/C(C)=C/C=C/C=C(C)/C=C/C=C(C)/C=C/C2=C(C)CCCC2(C)C)C(C)(C)CCC1 [Beta-carotene, beta-carotene] | can reduce the base line level | 315.86 pg/10^6 cells | 225.15 pg/10^6 cells | 241.8 pg/10^6 cells | 291.85 pg/10^6 cells |  |  |  |  |  |  |  |  |  |  |
| CC1=C(/C=C/C(C)=C/C=C/C(C)=C/C=C/C=C(C)/C=C/C=C(C)/C=C/C2=C(C)C[C@@H](O)CC2(C)C)C(C)(C)CCC1 [Beta-cryptoxanthin, beta-cryptoxanthin] | moderate effect | 264.76 pg/10^6 cells | 268.46 pg/10^6 cells |  |  | 286.77 pg/10^6 cells |  |  |  |  |  |  |  |  |  |
| OCCc1ccc(O)c(O)c1 [Hydroxytyrosol, hydroxytyrosol] |  |  |  |  |  |  | 50% | 51% | 40% | 60% | 57% | 49% |  |  |  |
| CC(C)=CCC/C(C)=C/C=C/C(C)=C/C=C/C(C)=C/C=C/C=C(C)/C=C/C=C(C)/C=C/C=C(\C)CCC=C(C)C [Lycopene, lycopene] |  |  |  |  |  |  |  |  |  |  |  |  | significantly reduce |  |  |
| Oc1ccc(C=Cc2cc(O)cc(O)c2)cc1 [Resveratrol, resveratrol] |  |  |  |  |  |  | 61% | 51% | 47% | 68% | 66% | 53% |  | strongly inhibited | strongly inhibited |
| (−)-Epigallocatechin gallate [EGCG] |  |  |  |  |  |  | 59% | 43% | 33% | 66% | 20% | 27% |  | strongly inhibited | strongly inhibited |
